In series [1] the test system is M. tuberculosis H37Rv. In words: microbe, parasite or virus in culture. It counts as cell-based.
Series [2] has as its system M. tuberculosis HN878. In words: microbe, parasite or virus in culture. It counts as cell-based.
Series [3] relates to M. tuberculosis H37Rv. In words: microbe, parasite or virus in culture. It counts as cell-based. As to conditions: Mycobacterium tuberculosis, read-out: MIC, 7H9 Broth, H37Rv.
Series [4] concerns M. tuberculosis HN878. In words: microbe, parasite or virus in culture. The series is classed as cell-based. This is another data set of the same source.
For series [5], the system named is M. tuberculosis H37Rv. In words: Pyrazinamide susceptibility by MGIT. As to conditions: Mycobacterium tuberculosis, susceptibility determined by MGIT, read-out: MIC, H37Rv (7H9 Broth). It counts as cell-based.
Series [6] relates to M. tuberculosis HN878. Kind of series: Pyrazinamide susceptibility by MGIT. It counts as cell-based. As to conditions: Mycobacterium tuberculosis, susceptibility determined by MGIT, read-out: MIC, HN878 (7H9 Broth).
The subject of series [7] is M. tuberculosis H37Rv. As to conditions: in vivo, 25 mg/kg; cited from earlier work.
Series [8] concerns M. tuberculosis H37Rv. It counts as in vivo, Mycobacterium tuberculosis.
For the next series, the system named is M. tuberculosis. As to conditions: phase 2a study; cited from earlier work.
For series [9] the following is noted: plasma, week 4, Experiment 3, mean ± SD; for Concentration of Telacebec at steady state, 1h: 1 h post-dose; for Concentration of Telacebec at steady state, 5h: 5 h post-dose; for Concentration of Telacebec at steady state, 24h: 24 h post-dose. Here is the method:
For S587 and its M3 metabolite, the mean concentrations were compared between mice administered S587 alone and mice administered S587 in combination with T 10 mg/kg (T10), T 50 mg/kg (T50), and T10 plus C. For T, the mean concentrations were compared between mice administered T10 alone and T10 in combination with S587 and S587 + C, as well as between mice administered T50 alone and T50 in combination with S587.
Multidose PK of T and TBAJ-587 in plasma was characterized in infected female BALB/c mice (Charles River Laboratories, Wilmington, MA) receiving oral doses once daily. In week 4 of treatment in Experiment 3, three mice per group per time point were sampled by submandibular bleed at 1, 5, and 24 hours post-dose. Drug concentrations were quantified by a validated high-performance liquid chromatography/mass spectrometry method (Alliance Pharma Inc, Devault, PA).

Setting [10] is: Mycobacterium tuberculosis, H37RV; read-out: MIC, 7H11 Agar, H37Rv.
[11] abbreviates: Mycobacterium tuberculosis, HN878; read-out: MIC, 7H11 Agar, HN878.
Setting [12] is: Mycobacterium tuberculosis, HN878; read-out: MIC, 7H9 Broth, HN878.

Converted amounts (≈) assume the structure as drawn. Read-outs that look alike come from different tables or passages of the source. Bounds are passed on as bounds.

Regarding `COc1nc2ccc(Br)cc2cc1[C@@H](c1ccccc1)[C@@](O)(CCN(C)C)c1cccc2ccccc12` [Bedaquiline, bedaquiline], the values for the MIC in the series with M. tuberculosis H37Rv [1] (setting [10]), with M. tuberculosis HN878 [2] (setting [11]) and in the series on M. tuberculosis H37Rv [3] were 0.03 µg/mL (≈ 0.054 µM), 0.03 µg/mL (≈ 0.054 µM) and 0.25 µg/mL (≈ 0.45 µM), respectively.
`CC(C)/N=c1\cc2n(-c3ccc(Cl)cc3)c3ccccc3nc-2cc1Nc1ccc(Cl)cc1` [Clofazimine, clofazimine]: the MIC in the series on M. tuberculosis H37Rv [1] (setting [10]) and in the series on M. tuberculosis HN878 [2] (setting [11]) was 0.25 µg/mL (≈ 0.528 µM) in each case.
For `CC(=O)NC[C@H]1CN(c2ccc(N3CCOCC3)c(F)c2)C(=O)O1` [Linezolid, linezolid], the MIC in the series with M. tuberculosis H37Rv [1] (setting [10]) was found to be 0.5 µg/mL (≈ 1.48 µM); in the series with M. tuberculosis HN878 [4] (setting [12]) it was 0.5 µg/mL (≈ 1.48 µM); with M. tuberculosis H37Rv [3], 1 µg/mL (≈ 2.96 µM).
Regarding `COc1c(N2C[C@@H]3CCCN[C@@H]3C2)c(F)cc2c(=O)c(C(=O)O)cn(C3CC3)c12` [Moxifloxacin, moxifloxacin], the MIC with M. tuberculosis HN878 [4] (setting [12]) is 0.25 µg/mL (≈ 0.623 µM); with M. tuberculosis H37Rv [3] it was 0.5 µg/mL (≈ 1.25 µM).
As to `O=[N+]([O-])c1cn2c(n1)OC[C@@H](OCc1ccc(OC(F)(F)F)cc1)C2` [Pretomanid, pretomanid], the MIC with M. tuberculosis H37Rv [1] (setting [10]) was 0.06 µg/mL (≈ 0.167 µM); in the series with M. tuberculosis HN878 [2] (setting [11]), 0.125 µg/mL (≈ 0.348 µM); with M. tuberculosis HN878 [4] (setting [12]), 0.06 µg/mL (≈ 0.167 µM); in the series on M. tuberculosis H37Rv [3], 0.125 µg/mL (≈ 0.348 µM).
On to `NC(=O)c1cnccn1` [Pyrazinamide, pyrazinamide], for which the MIC in the series with M. tuberculosis H37Rv [5] and with M. tuberculosis HN878 [6] was under 100 µg/mL throughout.
Consider `CO[C@H]1/C=C/O[C@@]2(C)Oc3c(C)c(O)c4c(O)c(c(/C=N/N5CCN(C)CC5)c(O)c4c3C2=O)NC(=O)/C(C)=C\C=C\[C@H](C)[C@H](O)[C@@H](C)[C@@H](O)[C@@H](C)[C@H](OC(C)=O)[C@@H]1C` [Rifampin], for which the MIC is 0.25 µg/mL (≈ 0.304 µM) in the series with M. tuberculosis HN878 [4] (Mycobacterium tuberculosis, HN878, read-out: MIC, 7H9 Broth, HN878) and 0.25 µg/mL (≈ 0.304 µM) in the series on M. tuberculosis H37Rv [3].
As for `COc1ncnc(Cn2cc(C(=O)NCCO)c3ncc(C)cc32)c1C` [TBA-7371], the MIC was 0.25 µg/mL (≈ 0.703 µM) with M. tuberculosis H37Rv [1] (setting [10]) and 0.5 µg/mL (≈ 1.41 µM) with M. tuberculosis HN878 [2] (setting [11]).
As to `COc1cc([C@](O)(CCN(C)C)[C@@H](c2cc3cc(Br)ccc3nc2OC)c2cccc(OC)c2F)cc(OC)n1` [TBAJ-587], the MIC came out at 0.008 µg/mL (≈ 0.013 µM) in the series with M. tuberculosis H37Rv [1] (Mycobacterium tuberculosis, H37RV, read-out: MIC, 7H11 Agar, H37Rv) and 0.004 µg/mL (≈ 0.00651 µM) in the series with M. tuberculosis HN878 [2] (Mycobacterium tuberculosis, HN878, read-out: MIC, 7H11 Agar, HN878). Also, the “reduction of lung CFU count over 4 weeks” value in the series with M. tuberculosis H37Rv [7] is reported as “approximately 5 log10”. In the series with M. tuberculosis H37Rv [8] (in vivo), the “mean (±SD) log10 CFU counts, W4” value is on record as 3.40 ± 0.47 log10 CFU. In addition, in the series on M. tuberculosis H37Rv [8] (in vivo, 12.5 mg/kg), the “reduction of bacterial burden over 4 weeks” value was “more than 4 log10”.
Regarding `COc1cc([C@](O)(CCN(C)C)[C@@H](c2cc3cc(Br)ccc3nc2OC)c2cc(OC)nc(OC)c2OC)cc(OC)n1` [TBAJ-876], the MIC in the series on M. tuberculosis H37Rv [1] (setting [10]) is 0.002 to 0.004 µg/mL (≈ 0.00304 to 0.00608 µM); in the series with M. tuberculosis HN878 [2] (setting [11]), 0.004 µg/mL (≈ 0.00608 µM). Besides, the “reduction of CFU counts over 4 weeks compared to D0” value in the series on M. tuberculosis H37Rv [8] (Experiment 2, S876 6.25 mg/kg, 4 weeks) is reported as “more than 3.5 log10”. Moreover, the “mean (±SD) log10 CFU counts, W4” value with M. tuberculosis H37Rv [8] (Experiment 2, lungs, 4 weeks of treatment, doses mg/kg/dose as subscripts, bid = twice daily, D0 7.51 ± 0.06, lower limit of detection 1.66 log10) is given as 3.74 ± 0.44 log10 CFU.
In the case of `CCc1nc2ccc(Cl)cn2c1C(=O)NCc1ccc(N2CCC(c3ccc(OC(F)(F)F)cc3)CC2)cc1` [Telacebec, telacebec], the MIC worked out at 0.008 µg/mL (≈ 0.0144 µM) in the series with M. tuberculosis H37Rv [1] (Mycobacterium tuberculosis, 432 h; parental H37Rv strain; agar proportion method; […]; read-out: MIC); 0.008 µg/mL (≈ 0.0144 µM) in the series on M. tuberculosis H37Rv [1] (setting [10]); 0.002 µg/mL (≈ 0.00359 µM) in the series on M. tuberculosis HN878 [2] (setting [11]). Moreover, the “early bactericidal activity in TB patients” value in the series with M. tuberculosis is listed as “dose-dependent early bactericidal activity”. Besides, the “Concentration of Telacebec at steady state, 1h” value in series [9] (T 10 mg/kg) is 1462 ± 435 ng/mL; in series [9] (T 50 mg/kg) it was 2642 ± 1857 ng/mL. For the same compound, the “Concentration of Telacebec at steady state, 5h” value in series [9] (T 10 mg/kg) amounted to 2265 ± 102 ng/mL; in [9] (T 50 mg/kg) it was 7310 ± 3990 ng/mL. In addition, the “Concentration of Telacebec at steady state, 24h” value in series [9] (T 10 mg/kg) was 921 ± 337 ng/mL; in [9] (T 50 mg/kg), 3008 ± 330 ng/mL. Further, the “effect of single drug treatment on lung CFU counts compared to D0” value with M. tuberculosis H37Rv [8] (Experiment 3, T at 10 and 50 mg/kg, 4 weeks, no dose-response) is reported as “bacteriostatic”. The “mean (±SD) log10 CFU counts, W4” value was determined as 7.65 ± 0.05 log10 CFU in the series on M. tuberculosis H37Rv [8] (Experiment 3, lungs, 4 weeks of treatment, T at 10 mg/kg where given, S587 12.5, C 12.5, Z 150 mg/kg, D0 7.52 ± 0.13) and 7.70 ± 0.06 log10 CFU with M. tuberculosis H37Rv [8] (Experiment 3, lungs, 4 weeks of treatment, T at 50 mg/kg, S587 12.5 mg/kg, D0 7.52 ± 0.13).
